{"source": "patent US4882331A", "about": "“1-[(1,1-diphenyl)-1-alkenyl]piperazine derivatives, method of preparation and pharmaceutical compositions in which they are present” (priority 1987, dated 1989)", "key": {"[1]": {"system": "mice", "test": "Determination of the 50% lethal dose (LD50) in mice", "conditions": "mice, IP", "protocol": "(§1) The toxicity of the compounds of the invention was determined by the following test:\n(§2) Determination of the 50% lethal dose (LD50) in mice\n(§3) The test product was administered intraperitoneally to groups of 5 male mice and 5 female mice at a rate of 0.1 ml per 10 g of body weight."}, "[2]": {"test": "in vivo", "conditions": "mouse, in vivo, ip", "protocol": "as §1, §2, §3"}, "[3]": {"system": "motor activity of mice", "test": "Study of the spontaneous motility (photoelectric actimeter)", "format": "in vivo", "conditions": "mouse, IP; for Activity (spontaneous motility): doses in mg.kg^-1", "protocol": "1. Study of the spontaneous motility\nThe motor activity of mice was determined using a Boissier and Simon photoelectric actimeter.\nThe mice are placed in groups of five in a box closed with a lid, through which two perpendicular rays of light pass; the mice cut across these rays as they move.\nThese movements are counted by a meter, which is read 30 min and 1 h after the administration of the test derivative."}, "[4]": {"system": "pain syndrome caused by phenylbenzoquinone (PBQ)", "test": "Peripheral analgesic activity (phenylbenzoquinone)", "format": "in vivo", "conditions": "mouse; IP", "protocol": "5. Peripheral analgesic activity\nA peritoneal pain is caused in mice by the intraperitoneal injection of phenylbenzoquinone (PBQ).\nThe test assesses the decrease in the pain syndrome, characterized by an abdominal twisting movement, which is caused by injecting the test derivative 30 min before the administration of PBQ.\nThe 50% effective dose is calculated from the percentage decrease in the pain syndrome relative to the control animals."}, "[5]": {"system": "yohimbine toxicity", "test": "Yohimbine test (yohimbine toxicity)", "format": "in vivo", "conditions": "24 h; mouse; IP; yohimbine 25 mg/kg IP", "protocol": "The test derivative is administered 30 min before the injection of yohimbine (25 mg/kg IP).\nThe number of deaths is counted 24 h after the injection of yohimbine."}, "[6]": {"system": "penile erections and yawning", "test": "Penile erections caused by apomorphine", "format": "in vivo", "conditions": "Rattus norvegicus; rats; IP; apomorphine 0.20 mg/kg; read-out: Antagonism of the penile erections and yawning: antagonism as from dose", "protocol": "3. Penile erections caused by apomorphine\nThe test product was administered parenterally or orally to rats, placed in a transparent cage, 30 minutes before the intraperitoneal injection of 0.20 mg/kg of apomorphine.\nThe number of penile erections was recorded over the 30 minutes following the injection of apomorphine.\nA statistical study was carried out by comparison with the numbers of erections in the control rats."}, "[7]": {"system": "central nervous system", "test": "Pharmacological tests on the central nervous system, overall result", "format": "in vivo, mouse, rat", "conditions": "overall statement on Table III", "protocol": "The pharmacological properties of the compounds of the invention were determined using the following tests: Experimental protocols The results obtained are collated in Table III below. […]"}, "[8]": {"system": "head twitches induced by 5-MeODMT", "test": "Head twitches caused by 5-methoxydimethyltryptamine (5-MeODMT)", "format": "in vivo", "conditions": "Mus musculus; male mice; IP; 5-MeODMT 4 mg/kg; read-out: Antagonism of the head twitches induced by 5-MeODMT: decrease as from dose", "protocol": "2. Head twitches caused by 5-methoxydimethyltryptamine (5-MeODMT)\n(§4) Animals: male mice of 25±1 g\nAt time T-3 hours, 100 mg/kg of pargyline were injected intraperitoneally.\n(§5) At time T-30 minutes, the test product or distilled water (control) was injected intraperitoneally.\nAt time T=O, 5-MeODMT was injected intraperitoneally at a dose of 4 mg/kg.\nThe number of head twitches was observed.\n(§6) The mean number of movements was calculated and compared with the control group."}, "[9]": {"system": "antiserotoninergic activity", "test": "Antiserotoninergic activity tests, overall result", "format": "in vivo, mice, rats", "conditions": "overall statement on Table IV", "from_the_text": "The compound of Example 1 was furthermore tested for its antiserotoninergic activity according to the following tests: […]"}, "[10]": {"system": "head twitches induced by 5-HTP", "test": "Head twitches caused by 5-hydroxytryptophane (5-HTP)", "format": "in vivo", "conditions": "Mus musculus; male mice; IP; 5-HTP 4 mg/kg; read-out: Antagonism of the head twitches induced by 5-HTP: decrease as from dose", "protocol": "1. Head twitches caused by 5-hydroxytryptophane (5-HTP)\nas §4\nAt time T-3 h, 100 mg/kg of pargyline were injected intraperitoneally.\nas §5\nAt time T=O, 5-HTP was injected intraperitoneally at a dose of 4 mg/kg.\nAll the jerky head movements made by the mice were observed over a 1-minute period every twelve minutes.\nas §6"}, "[11]": {"system": "hyperthermia and clinical signs after tranylcypromine and tryptophan", "test": "Grahame Smith's test", "format": "in vivo", "conditions": "rats; PO", "protocol": "Animals: male rats of 200±10 g\nAt time T-30 minutes, the test product was administered intraperitoneally.\nAt time T=O, an MAOI was administered intraperitoneally (tranylcypromine, 20 mg/kg).\nAt time T+20 minutes, 250 mg/kg of tryptophan were administered (IP).\nThe temperature of the rats was recorded every 30 minutes for 200 minutes and the various clinical signs (motor agitation--hypersalivation--catatonia of the tail--hyperesthesia--thrashing of the tail, etc.) were noted on a scale of 0 to 1.\nThe mean temperatures and the average symptoms observed were calculated by comparison with the controls."}, "[12]": {"system": "mouse muscle-relaxing action", "test": "Muscle-relaxing action (traction test)", "format": "in vivo", "conditions": "IP, doses in mg.kg^-1", "from_the_text": "3. Muscle-relaxing action (traction test)\nThis test assesses the presence or absence of redressments in a mouse brought up to a horizontal wire with its front paws.\nThe number of mice which are unable to grip the wire with one of their back paws within 5 s is noted.\nA 50% effective dose can be calculated from the results obtained."}}, "data": [{"smiles": "Cc1ccccc1OC(CCN1CCN(CCC=C(c2ccccc2)c2ccccc2)CC1)c1ccccc1", "note": "(stereo not drawn) [Compound 4]", "values": [{"measurement": "FIDUCIAL LIMITS of LD50, CALCULATION ACCORDING TO LITCHFIELD and WILCOXON", "setting": "[1]", "value": "279 to 453", "unit": "mg/kg"}, {"measurement": "LD50", "setting": "[2]", "value": 386, "unit": "mg/kg"}, {"measurement": "Activity (spontaneous motility)", "setting": "[3]", "value": "Increase"}, {"measurement": "ED50", "setting": "[4]", "value": 1.5, "unit": "mg/kg"}]}, {"smiles": "Fc1ccc(OCCN2CCN(CCCC=C(c3ccccc3)c3ccccc3)CC2)cc1", "note": "[Compound 16]", "values": [{"measurement": "ED50", "setting": "[4]", "value": 4.5, "unit": "mg/kg"}]}, {"smiles": "Fc1ccc(OCCCN2CCN(CCC=C(c3ccccc3)c3ccccc3)CC2)cc1", "note": "[Compound 6]", "values": [{"measurement": "FIDUCIAL LIMITS of LD50, CALCULATION ACCORDING TO LITCHFIELD and WILCOXON", "setting": "[1]", "value": "206 to 296", "unit": "mg/kg"}, {"measurement": "LD50", "setting": "[2]", "value": 247, "unit": "mg/kg"}, {"measurement": "ED50", "setting": "[5]", "value": 25, "unit": "mg/kg"}]}, {"smiles": "Fc1ccc(OCCN2CCN(CCC=C(c3ccccc3)c3ccccc3)CC2)cc1", "note": "[Compound 1, 1-[(1,1-diphenyl)-1-buten-4-yl]-4-[1-(2-(4-fluorophenoxy)ethyl]piperazine dimethanesulfonate]", "values": [{"measurement": "FIDUCIAL LIMITS of LD50, CALCULATION ACCORDING TO LITCHFIELD and WILCOXON", "setting": "[1]", "value": "195 to 274", "unit": "mg/kg"}, {"measurement": "LD50", "setting": "[2]", "value": 231, "unit": "mg/kg"}, {"measurement": "ED50", "setting": "[5]", "value": 31, "unit": "mg/kg"}, {"measurement": "minimal effective dose", "setting": "[6]", "value": "≥ 6.25", "unit": "mg/kg"}, {"measurement": "antidepressant / central nervous system activity", "setting": "[7]", "value": "antidepressants with a greater activity than the known antidepressants"}, {"measurement": "minimal effective dose", "setting": "[8]", "value": "≥ 6.25", "unit": "mg/kg"}, {"measurement": "antiserotoninergic activity", "setting": "[9]", "value": "possesses an antiserotoninergic activity"}, {"measurement": "minimal effective dose", "setting": "[10]", "value": "≥ 18.8", "unit": "mg/kg"}, {"measurement": "ED50", "setting": "[4]", "value": 1.5, "unit": "mg/kg"}, {"measurement": "Grahame Smith's test: decrease at dose", "setting": "[11]", "value": 37.5, "unit": "mg/kg"}]}, {"smiles": "Fc1ccc(OCCCCN2CCN(CCC=C(c3ccccc3)c3ccccc3)CC2)cc1", "note": "[Compound 8]", "values": [{"measurement": "FIDUCIAL LIMITS of LD50, CALCULATION ACCORDING TO LITCHFIELD and WILCOXON", "setting": "[1]", "value": "172 to 229", "unit": "mg/kg"}, {"measurement": "LD50", "setting": "[2]", "value": 199, "unit": "mg/kg"}, {"measurement": "ED50", "setting": "[5]", "value": "> 25", "unit": "mg/kg"}, {"measurement": "ED50", "setting": "[4]", "value": 6.25, "unit": "mg/kg"}]}, {"smiles": "O=C(CCCN1CCN(CCC=C(c2ccccc2)c2ccccc2)CC1)c1ccc(F)cc1", "note": "[Compound 7]", "values": [{"measurement": "ED50", "setting": "[5]", "value": "> 25", "unit": "mg/kg"}, {"measurement": "ED50", "setting": "[3]", "value": 7.5, "unit": "mg/kg"}]}, {"smiles": "CN(C)CCCN1c2ccccc2CCc2ccccc21", "note": "[IMIPRAMINE]", "values": [{"measurement": "Muscle-relaxing action, traction test", "setting": "[12]", "value": "No action"}]}, {"smiles": "O=C(O)CCCCCCNC1c2ccccc2CCc2ccccc21", "note": "[AMINEPTINE]", "values": [{"measurement": "Muscle-relaxing action, traction test", "setting": "[12]", "value": "No action"}]}, {"smiles": "Fc1ccc(OC(CCN2CCN(CCC=C(c3ccccc3)c3ccccc3)CC2)c2ccccc2)cc1", "note": "(stereo not drawn) [Compound 5]", "values": [{"measurement": "FIDUCIAL LIMITS of LD50, CALCULATION ACCORDING TO LITCHFIELD and WILCOXON", "setting": "[1]", "value": "234 to 421", "unit": "mg/kg"}, {"measurement": "LD50", "setting": "[2]", "value": 314, "unit": "mg/kg"}]}, {"smiles": "Fc1ccc(OCCN2CCN(CCC=C(c3ccccc3)c3ccc(F)cc3)CC2)cc1", "note": "[Compound 17]", "values": [{"measurement": "ED50", "setting": "[5]", "value": "> 25", "unit": "mg/kg"}, {"measurement": "ED50", "setting": "[4]", "value": 5.2, "unit": "mg/kg"}]}, {"smiles": "Cc1ccc(OCCCCN2CCN(CCC=C(c3ccccc3)c3ccccc3)CC2)cc1", "note": "[Compound 14]", "values": [{"measurement": "ED50", "setting": "[5]", "value": "> 25", "unit": "mg/kg"}, {"measurement": "Activity (spontaneous motility)", "setting": "[3]", "value": "Decrease"}, {"measurement": "ED50", "setting": "[4]", "value": 2.5, "unit": "mg/kg"}]}]}
